Tested on: MV-4-11 cells
Assay: Cell Viability Assay in MV-4-11 Cells
Format: cell-based
Conditions: Homo sapiens, MV4-11, 72 h, MV-4-11 cells, 72 h, Cell-Titer Glo; read-out: IC50
Summary of the method: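 MV-4-11 cells at 7,000/well in IMDM with 10% FBS, exposed to compound for 72 h. Viability by CellTiter-Glo luminescence, normalized to DMSO as 100%, fitted with a four-parameter curve.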

Row | Structure (SMILES) | IC50 [nM]
1 | Cc1cccc2ccnc(N(C(=O)c3ccc(Nc4nccc(N5CCNC(=O)C5)n4)cc3F)[C@@H]3CCCNC3)c12 [Example 938, (R)-2-fluoro-N-(8-methylisoquinolin-1-yl)-4-((4-(3-oxopiperazin-1-yl)pyrimidin-2-yl)amino)-N-(piperidin-3-yl)benzamide] | 290
2 | Cc1cccc2ccnc(N(C(=O)c3ccc(Nc4nccc(N5[C@H](C)COC[C@H]5C)n4)cc3F)[C@@H]3CCCNC3)c12 [Example 939, 4-((4-((3R,5R)-3,5-dimethylmorpholino)pyrimidin-2-yl)amino)-2-fluoro-N-(8-methylisoquinolin-1-yl)-N—((R)-piperidin-3-yl)benzamide] | 69
3 | Cc1cccc2ccnc(N(C(=O)c3ccc(Nc4nccc(N5[C@H](C)COC[C@@H]5C)n4)cc3F)[C@@H]3CCCNC3)c12 [Example 940, 4-((4-((3R,5S)-3,5-dimethylmorpholino)pyrimidin-2-yl)amino)-2-fluoro-N-(8-methylisoquinolin-1-yl)-N—((R)-piperidin-3-yl)benzamide] | 34
4 | Cc1cccc2ccnc(N(C(=O)c3ccc(Nc4nccc(N5CCOC[C@H]5C(C)C)n4)cc3F)[C@@H]3CCCNC3)c12 [Example 941, 2-fluoro-4-((4-((R)-3-isopropylmorpholino)pyrimidin-2-yl)amino)-N-(8-methylisoquinolin-1-yl)-N—((R)-piperidin-3-yl)benzamide] | 39
5 | Cc1cccc2ccnc(N(C(=O)c3ccc(Nc4nccc(N5CCOC[C@H]5CO)n4)cc3F)[C@@H]3CCCNC3)c12 [Example 942, 2-fluoro-4-((4-((R)-3-(hydroxymethyl)morpholino)pyrimidin-2-yl)amino)-N-(8-methylisoquinolin-1-yl)-N—((R)-piperidin-3-yl)benzamide] | 88
6 | COC[C@@H]1COCCN1c1ccnc(Nc2ccc(C(=O)N(c3nccc4cccc(C)c34)[C@@H]3CCCNC3)c(F)c2)n1 [Example 943, 2-fluoro-4-(4-((R)-3-(methoxymethyl)morpholino)pyrimidin-2-ylamino)-N-(8-methylisoquinolin-1-yl)-N—((R)-piperidin-3-yl)benzamide] | 80
7 | Cc1cccc2ccnc(N(C(=O)c3ccc(Nc4nccc(N5CCCOCC5)n4)cc3F)[C@@H]3CCCNC3)c12 [Example 944, (R)-4-(4-(1,4-oxazepan-4-yl)pyrimidin-2-ylamino)-2-fluoro-N-(8-methylisoquinolin-1-yl)-N-(piperidin-3-yl)benzamide] | 46
8 | COC(=O)[C@@H]1COCCN1c1ccnc(Nc2ccc(C(=O)N(c3nccc4cccc(C)c34)[C@@H]3CCCNC3)c(F)c2)n1 [Example 945, methyl(S)-4-(2-((3-fluoro-4-((8-methylisoquinolin-1-yl)((R)-piperidin-3-yl)carbamoyl)phenyl)amino)pyrimidin-4-yl)morpholine-3-carboxylate] | 47
9 | Cc1cccc2ccnc(N(C(=O)c3ccc(Nc4nccc(N[C@H]5CC[C@H](O)CC5)n4)cc3F)[C@@H]3CCCNC3)c12 [Example 946, 2-fluoro-4-(4-((1r,4r)-4-hydroxycyclohexylamino)pyrimidin-2-ylamino)-N-(8-methylisoquinolin-1-yl)-N—((R)-piperidin-3-yl)benzamide] | 130
10 | Cc1cccc2ccnc(N(C(=O)c3ccc(Nc4nccc(N5CCC(=O)C5)n4)cc3F)[C@@H]3CCCNC3)c12 [Example 947, (R)-2-fluoro-N-(8-methylisoquinolin-1-yl)-4-((4-(3-oxopyrrolidin-1-yl)pyrimidin-2-yl)amino)-N-(piperidin-3-yl)benzamide] | 35
11 | Cc1cccc2ccnc(N(C(=O)c3ccc(Nc4nccc(N(C)C5CCCC5)n4)cc3F)[C@@H]3CCCNC3)c12 [Example 948, 4-({4-[cyclopentyl(methyl)amino]pyrimidin-2-yl}amino)-2-fluoro-N-(8-methylisoquinolin-1-yl)-N-[(3R)-piperidin-3-yl]benzamide] | 150
12 | Cc1cccc2ccnc(N(C(=O)c3ccc(Nc4nccc(N(C)CCC#N)n4)cc3F)[C@@H]3CCCNC3)c12 [Example 949, (R)-4-((4-((2-cyanoethyl)(methyl)amino)pyrimidin-2-yl)amino)-2-fluoro-N-(8-methylisoquinolin-1-yl)-N-(piperidin-3-yl)benzamide] | 250
13 | Cc1cccc2ccnc(N(C(=O)c3ccc(Nc4nccc(NCC#N)n4)cc3F)[C@@H]3CCCNC3)c12 [Example 950, (R)-4-((4-((cyanomethyl)amino)pyrimidin-2-yl)amino)-2-fluoro-N-(8-methylisoquinolin-1-yl)-N-(piperidin-3-yl)benzamide] | 51
14 | COc1ccnc(Nc2ccc(C(=O)N(c3nccc4cccc(C)c34)[C@@H]3CCCNC3)c(F)c2)n1 [Example 951, 2-fluoro-4-[(4-methoxypyrimidin-2-yl)amino]-N-(8-methylisoquinolin-1-yl)-N-[(3R)-piperidin-3-yl]benzamide] | 100
15 | CCC(C)N(C)c1ccnc(Nc2ccc(C(=O)N(c3nccc4cccc(C)c34)[C@@H]3CCCNC3)c(F)c2)n1 (stereo partly drawn) [Example 952, 4-((4-(sec-butyl(methyl)amino)pyrimidin-2-yl)amino)-2-fluoro-N-(8-methylisoquinolin-1-yl)-N—((R)-piperidin-3-yl)benzamide] | 130
16 | Cc1cccc2ccnc(N(C(=O)c3ccc(Nc4nccnn4)cc3F)[C@@H]3CCCNC3)c12 [Example 953, (R)-4-(1,2,4-triazin-3-ylamino)-2-fluoro-N-(8-methylisoquinolin-1-yl)-N-(piperidin-3-yl)benzamide] | 100
17 | Cc1cccc2ccnc(N(C(=O)c3ccc(Nc4nccc(NC5CCOCC5)n4)cc3F)[C@@H]3CCCNC3)c12 [Example 954, (R)-2-fluoro-N-(8-methylisoquinolin-1-yl)-N-(piperidin-3-yl)-4-((4-((tetrahydro-2H-pyran-4-yl)amino)pyrimidin-2-yl)amino)benzamide] | 31
18 | Cc1cccc2ccnc(N(C(=O)c3ccc(Nc4nccc(N5CCOCC5C#N)n4)cc3F)[C@@H]3CCCNC3)c12 (stereo partly drawn) [Example 955, 4-((4-(3-cyanomorpholino)pyrimidin-2-yl)amino)-2-fluoro-N-(8-methylisoquinolin-1-yl)-N—((R)-piperidin-3-yl)benzamide] | 26
19 | Cc1cccc2ccnc(N(C(=O)c3ccc(Nc4nccc(N5CCOCC5CN(C)C)n4)cc3F)[C@@H]3CCCNC3)c12 (stereo partly drawn) [Example 956, 4-(4-(3-((dimethylamino)methyl)morpholino)pyrimidin-2-ylamino)-2-fluoro-N-(8-methylisoquinolin-1-yl)-N—((R)-piperidin-3-yl)benzamide] | 360
20 | Cc1cccc2ccnc(N(C(=O)c3ccc(Nc4nccc(N(C)C5CCOCC5)n4)cc3F)[C@@H]3CCCNC3)c12 [Example 957, (R)-2-fluoro-4-(4-(methyl(tetrahydro-2H-pyran-4-yl)amino)pyrimidin-2-ylamino)-N-(8-methylisoquinolin-1-yl)-N-(piperidin-3-yl)benzamide] | 23
21 | Cc1cccc2ccnc(N(C(=O)c3ccc(Nc4nccc(N5CCOCC5c5cccnc5)n4)cc3F)[C@@H]3CCCNC3)c12 (stereo partly drawn) [Example 958, 2-fluoro-N-(8-methylisoquinolin-1-yl)-N—((R)-piperidin-3-yl)-4-((4-(3-(pyridin-3-yl)morpholino)pyrimidin-2-yl)amino)benzamide] | 47
22 | Cc1cccc2ccnc(N(C(=O)c3ccc(Nc4nccc(N5CCCC[C@H]5C)n4)cc3F)[C@@H]3CCCNC3)c12 [Example 959, 2-fluoro-N-(8-methylisoquinolin-1-yl)-4-({4-[(2R)-2-methylpiperidin-1-yl]pyrimidin-2-yl}amino)-N-[(3R)-piperidin-3-yl]benzamide] | 190
23 | Cc1cccc2ccnc(N(C(=O)c3ccc(Nc4nccc(N5CCCC[C@H]5CO)n4)cc3F)[C@@H]3CCCNC3)c12 [Example 960, 2-fluoro-4-((4-((S)-2-(hydroxymethyl)piperidin-1-yl)pyrimidin-2-yl)amino)-N-(8-methylisoquinolin-1-yl)-N—((R)-piperidin-3-yl)benzamide] | 110
24 | Cc1cccc2ccnc(N(C(=O)c3ccc(Nc4nccc(CN5CCCC5)n4)cc3F)[C@@H]3CCCNC3)c12 [Example 961, (R)-2-fluoro-N-(8-methylisoquinolin-1-yl)-N-(piperidin-3-yl)-4-((4-(pyrrolidin-1-ylmethyl)pyrimidin-2-yl)amino)benzamide] | 38
25 | Cc1cccc2ccnc(N(C(=O)c3ccc(Nc4nccc(N5CCC(c6ccncc6)CC5)n4)cc3F)[C@@H]3CCCNC3)c12 [Example 962, (R)-2-fluoro-N-(8-methylisoquinolin-1-yl)-N-(piperidin-3-yl)-4-((4-(4-(pyridin-4-yl)piperidin-1-yl)pyrimidin-2-yl)amino)benzamide] | 15
26 | Cc1cccc2ccnc(N(C(=O)c3ccc(Nc4nccc(N5CCC(C)(CO)CC5)n4)cc3F)[C@@H]3CCCNC3)c12 [Example 963, 2-fluoro-4-({4-[4-(hydroxymethyl)-4-methylpiperidin-1-yl]pyrimidin-2-yl}amino)-N-(8-methylisoquinolin-1-yl)-N-[(3R)-piperidin-3-yl]benzamide] | 12
27 | COCC1CCN(c2ccnc(Nc3ccc(C(=O)N(c4nccc5cccc(C)c45)[C@@H]4CCCNC4)c(F)c3)n2)CC1 [Example 964, (R)-2-fluoro-4-((4-(4-(methoxymethyl)piperidin-1-yl)pyrimidin-2-yl)amino)-N-(8-methylisoquinolin-1-yl)-N-(piperidin-3-yl)benzamide] | 64
28 | COC(=O)[C@H]1CCCN1c1ccnc(Nc2ccc(C(=O)N(c3nccc4cccc(C)c34)[C@@H]3CCCNC3)c(F)c2)n1 [Example 965, methyl (2-((3-fluoro-4-((8-methylisoquinolin-1-yl)((R)-piperidin-3-yl)carbamoyl)phenyl)amino)pyrimidin-4-yl)-D-prolinate] | 130
29 | Cc1cccc2ccnc(N(C(=O)c3ccc(Nc4nccc(N5CCC[C@@H]5CO)n4)cc3F)[C@@H]3CCCNC3)c12 [Example 966, 2-fluoro-4-({4-[(2R)-2-(hydroxymethyl)pyrrolidin-1-yl]pyrimidin-2-yl}amino)-N-(8-methylisoquinolin-1-yl)-N-[(3R)-piperidin-3-yl]benzamide] | 32

From patent US20240400555A1 (Initial Therapeutics, Inc., priority 2023, published 2024)
